Tests used:
[1] = (§1) The drug is tested on WLS-350 corresponding to human gut metagenome with ENA study accession number: PRJEB37062 and ENA sample accession number: ERS12561789 for biotransformation under anaerobic condition. The drug concentrations were measured over 9 timepoints collected between 0 and 24 hours of incubation by liquid-chromatography-coupled mass spectrometry (LC–MS); conditions: 2 µM
[2] = as §1, with “Z-013” for “WLS-350”, “rabbit” for “human”, “ERS12561813” for “ERS12561789”; conditions: 2 µM
[3] = human gut metagenome, 24 h, 2 µM
[4] = as §1, with “WLS-240” for “WLS-350”, “ERS12561773” for “ERS12561789”; conditions: 2 µM
[5] = human gut metagenome, 24 h, 2 µM; remark: listed apart in the source
[6] = as §1, with “WLS-370” for “WLS-350”, “ERS12561793” for “ERS12561789”; conditions: 2 µM
[7] = human gut metagenome, 24 h, 2 µM; remark: listed apart in the source
[8] = as §1, with “Z-004” for “WLS-350”, “to” for “to human gut”, “ERS12561804” for “ERS12561789”; conditions: 2 µM
[9] = human gut metagenome, 24 h, 2 µM; remark: listed apart in the source
[10] = as §1, with “Z-027” for “WLS-350”, “to” for “to human gut”, “ERS12561826” for “ERS12561789”; conditions: 2 µM
[11] = human gut metagenome, 24 h, 2 µM; remark: listed apart in the source
[12] = as §1, with “Z-026” for “WLS-350”, “to” for “to human gut”, “ERS12561825” for “ERS12561789”; conditions: 2 µM
[13] = as §1, with “Z-010” for “WLS-350”, “to” for “to human gut”, “ERS12561810” for “ERS12561789”; conditions: 2 µM
[14] = as §1, with “Z-003” for “WLS-350”, “pig” for “human”, “ERS12561803” for “ERS12561789”; conditions: 2 µM
[15] = human gut metagenome, 24 h, 2 µM; remark: listed apart in the source
[16] = human gut metagenome, 24 h, 2 µM; remark: listed apart in the source
[17] = human gut metagenome, 24 h, 2 µM; remark: listed apart in the source
[18] = as §1, with “Z-020” for “WLS-350”, “rabbit” for “human”, “ERS12561819” for “ERS12561789”; conditions: 2 µM
[19] = human gut metagenome, 24 h, 2 µM; remark: listed apart in the source
[20] = as §1, with “WLS-220” for “WLS-350”, “ERS12561769” for “ERS12561789”; conditions: 2 µM
Note: call rule not given here.

Bacterial Biotransformation [1] | Bacterial Biotransformation [2] | Bacterial Biotransformation [3] | Bacterial Biotransformation [4] | Bacterial Biotransformation [5] | Bacterial Biotransformation [6] | Bacterial Biotransformation [7] | Bacterial Biotransformation [8] | Bacterial Biotransformation [9] | Bacterial Biotransformation [10] | Bacterial Biotransformation [11] | Bacterial Biotransformation [12] | Bacterial Biotransformation [13] | Bacterial Biotransformation [14] | Bacterial Biotransformation [15] | Bacterial Biotransformation [16] | Bacterial Biotransformation [17] | Bacterial Biotransformation [18] | Bacterial Biotransformation [19] | Bacterial Biotransformation [20] | Structure (SMILES)
Compound NOT metabolized | Compound metabolized | Compound NOT metabolized | Compound NOT metabolized | Compound NOT metabolized | Compound NOT metabolized | Compound NOT metabolized | Compound metabolized | Compound NOT metabolized | Compound metabolized | Compound NOT metabolized | Compound NOT metabolized | Compound metabolized | Compound metabolized | Compound NOT metabolized | Compound metabolized | Compound NOT metabolized | – | – | – | CSc1ccc2c(c1)C(N1CCN(C)CC1)Cc1ccccc1S2.O=C(O)/C=C\C(=O)O (centres undefined)
Compound NOT metabolized | Compound metabolized | Compound metabolized | – | Compound NOT metabolized | Compound NOT metabolized | Compound metabolized | Compound NOT metabolized | Compound metabolized | Compound metabolized | Compound NOT metabolized | Compound metabolized | Compound metabolized | Compound metabolized | Compound NOT metabolized | Compound NOT metabolized | Compound NOT metabolized | Compound metabolized | Compound NOT metabolized | Compound NOT metabolized | COc1ccc(/C=C/C(=O)Nc2ccccc2C(=O)O)cc1OC
Compound NOT metabolized | – | Compound NOT metabolized | Compound NOT metabolized | Compound NOT metabolized | Compound NOT metabolized | Compound NOT metabolized | Compound NOT metabolized | Compound NOT metabolized | Compound NOT metabolized | Compound NOT metabolized | Compound NOT metabolized | – | Compound NOT metabolized | Compound NOT metabolized | Compound NOT metabolized | Compound NOT metabolized | – | Compound NOT metabolized | Compound NOT metabolized | CCOC(=O)[C@H](CCc1ccccc1)N[C@@H](C)C(=O)N1CCC[C@H]1C(=O)O.O=C(O)/C=C\C(=O)O [ENALAPRIL MALEATE]
Compound metabolized | Compound metabolized | – | – | Compound metabolized | Compound metabolized | Compound metabolized | Compound NOT metabolized | – | Compound NOT metabolized | – | Compound NOT metabolized | Compound metabolized | Compound metabolized | Compound metabolized | Compound metabolized | Compound metabolized | Compound metabolized | Compound NOT metabolized | – | COC1=C(OC)C(=O)C(CCCCCCCCCCO)=C(C)C1=O [IDEBENONE]
– | Compound metabolized | Compound metabolized | Compound metabolized | Compound metabolized | Compound metabolized | – | – | Compound metabolized | Compound metabolized | Compound metabolized | – | Compound metabolized | Compound metabolized | Compound metabolized | Compound NOT metabolized | Compound metabolized | Compound metabolized | Compound metabolized | – | C#C[C@]1(OC(C)=O)CC[C@H]2[C@@H]3CCC4=CC(=O)CC[C@@H]4[C@H]3CC[C@@]21C [NORETHINDRONE ACETATE]
Compound metabolized | Compound NOT metabolized | Compound metabolized | Compound metabolized | Compound metabolized | Compound metabolized | Compound metabolized | Compound NOT metabolized | Compound metabolized | Compound NOT metabolized | Compound metabolized | Compound metabolized | – | Compound metabolized | Compound metabolized | Compound metabolized | Compound metabolized | Compound NOT metabolized | Compound metabolized | Compound metabolized | O=C1C(CC[S+]([O-])c2ccccc2)C(=O)N(c2ccccc2)N1c1ccccc1 (centres undefined) [SULFINPYRAZONE]
Compound NOT metabolized | Compound NOT metabolized | Compound NOT metabolized | Compound NOT metabolized | – | Compound NOT metabolized | Compound NOT metabolized | Compound NOT metabolized | Compound NOT metabolized | Compound NOT metabolized | Compound NOT metabolized | Compound NOT metabolized | Compound metabolized | Compound NOT metabolized | Compound NOT metabolized | – | Compound NOT metabolized | – | Compound NOT metabolized | Compound NOT metabolized | CCCCCNC(=N)N/N=C/c1c[nH]c2ccc(OC)cc12.O=C(O)/C=C\C(=O)O [TEGASEROD MALEATE]

Structure (SMILES) | Bacterial Biotransformation [1] | Bacterial Biotransformation [2] | Bacterial Biotransformation [3] | Bacterial Biotransformation [4] | Bacterial Biotransformation [5] | Bacterial Biotransformation [6] | Bacterial Biotransformation [7] | Bacterial Biotransformation [8] | Bacterial Biotransformation [9] | Bacterial Biotransformation [10] | Bacterial Biotransformation [11] | Bacterial Biotransformation [12] | Bacterial Biotransformation [13] | Bacterial Biotransformation [14] | Bacterial Biotransformation [15] | Bacterial Biotransformation [16] | Bacterial Biotransformation [17] | Bacterial Biotransformation [18] | Bacterial Biotransformation [19] | Bacterial Biotransformation [20]
CC(C)C[C@H]1C(=O)N2CCC[C@H]2[C@]2(O)O[C@](NC(=O)[C@@H]3C=C4c5cccc6[nH]c(Br)c(c56)C[C@H]4N(C)C3)(C(C)C)C(=O)N12.CS(=O)(=O)O [BROMOCRIPTINE MESYLATE] | Compound metabolized | Compound metabolized | Compound NOT metabolized | Compound NOT metabolized | Compound metabolized | Compound metabolized | – | Compound metabolized | Compound NOT metabolized | Compound metabolized | Compound metabolized | Compound metabolized | Compound metabolized | Compound metabolized | Compound metabolized | Compound metabolized | Compound metabolized | – | Compound metabolized | Compound metabolized
CN1[C@@H]2CC[C@H]1C[C@@H](OC(=O)[C@H](CO)c1ccccc1)C2 [HYOSCYAMINE] | – | Compound NOT metabolized | – | Compound metabolized | – | – | Compound metabolized | Compound NOT metabolized | – | Compound NOT metabolized | Compound NOT metabolized | Compound NOT metabolized | – | – | Compound metabolized | Compound metabolized | – | – | – | –
COc1ccc(Cc2nccc3cc(OC)c(OC)cc23)cc1OC [PAPAVERINE] | Compound metabolized | Compound NOT metabolized | Compound metabolized | – | Compound metabolized | Compound metabolized | Compound metabolized | Compound NOT metabolized | Compound metabolized | Compound NOT metabolized | Compound metabolized | Compound NOT metabolized | – | Compound metabolized | Compound metabolized | Compound metabolized | Compound NOT metabolized | Compound NOT metabolized | Compound metabolized | Compound metabolized
